Publication PMC4979471 (Cell Death Discovery, 2015)
Where two headings read alike, the source gives them in different places.

Assays:
Test in all cases: Kinase selectivity, P33-radiolabeled assay
Assay type in all cases: biochemical
Aurora C = target: T1, Aurora C (Homo sapiens, UniProt Q9UQB9); conditions: 10 μM ATP
T1 construct: purchased Reaction Biology Corp
T1 sequence (Q9UQB9 1-309): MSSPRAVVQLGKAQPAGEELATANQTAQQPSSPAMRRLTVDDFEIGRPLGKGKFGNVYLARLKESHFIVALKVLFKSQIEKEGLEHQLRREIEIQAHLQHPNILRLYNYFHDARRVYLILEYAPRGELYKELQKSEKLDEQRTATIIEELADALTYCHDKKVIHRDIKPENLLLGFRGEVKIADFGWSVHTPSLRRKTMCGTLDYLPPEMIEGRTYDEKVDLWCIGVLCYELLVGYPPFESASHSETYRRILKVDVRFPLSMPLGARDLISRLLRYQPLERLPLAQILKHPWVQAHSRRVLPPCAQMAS
In short: (§1)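 Values show % enzyme activity normalised to DMSO vehicle. They come from one 10 μM compound concentration run twice, at an ATP level of 10 μM.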

CDK1/cyclin A = target: T2, CDK1/cyclin A (Homo sapiens, UniProt P06493); conditions: 10 μM ATP
T2 construct: purchased Reaction Biology Corp
T2 sequence (P06493 whole entry): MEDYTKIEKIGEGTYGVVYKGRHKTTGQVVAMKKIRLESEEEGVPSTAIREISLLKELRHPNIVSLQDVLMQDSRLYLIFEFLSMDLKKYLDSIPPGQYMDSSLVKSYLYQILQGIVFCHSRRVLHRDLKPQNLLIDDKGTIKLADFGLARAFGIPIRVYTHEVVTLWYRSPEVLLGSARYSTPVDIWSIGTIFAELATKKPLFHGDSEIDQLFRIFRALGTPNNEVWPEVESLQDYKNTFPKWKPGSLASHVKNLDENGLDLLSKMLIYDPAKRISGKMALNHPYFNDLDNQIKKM
T2 sequence (P20248 whole entry partner): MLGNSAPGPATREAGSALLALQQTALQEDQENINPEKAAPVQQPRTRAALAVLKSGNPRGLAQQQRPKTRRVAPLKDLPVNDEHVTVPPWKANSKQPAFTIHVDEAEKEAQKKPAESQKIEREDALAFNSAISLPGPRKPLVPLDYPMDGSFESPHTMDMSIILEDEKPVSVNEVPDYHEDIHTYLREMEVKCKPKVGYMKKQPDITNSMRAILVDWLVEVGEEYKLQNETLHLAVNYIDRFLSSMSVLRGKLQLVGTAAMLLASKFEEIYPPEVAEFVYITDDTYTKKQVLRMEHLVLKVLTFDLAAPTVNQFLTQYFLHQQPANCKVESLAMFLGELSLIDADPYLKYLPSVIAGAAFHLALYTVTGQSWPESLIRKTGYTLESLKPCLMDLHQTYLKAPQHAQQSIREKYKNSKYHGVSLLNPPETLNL
In short: as §1

CLK2 = target: T3, CLK2 (Homo sapiens, UniProt P49760); conditions: 10 μM ATP
T3 construct: purchased Reaction Biology Corp
T3 sequence (P49760 whole entry): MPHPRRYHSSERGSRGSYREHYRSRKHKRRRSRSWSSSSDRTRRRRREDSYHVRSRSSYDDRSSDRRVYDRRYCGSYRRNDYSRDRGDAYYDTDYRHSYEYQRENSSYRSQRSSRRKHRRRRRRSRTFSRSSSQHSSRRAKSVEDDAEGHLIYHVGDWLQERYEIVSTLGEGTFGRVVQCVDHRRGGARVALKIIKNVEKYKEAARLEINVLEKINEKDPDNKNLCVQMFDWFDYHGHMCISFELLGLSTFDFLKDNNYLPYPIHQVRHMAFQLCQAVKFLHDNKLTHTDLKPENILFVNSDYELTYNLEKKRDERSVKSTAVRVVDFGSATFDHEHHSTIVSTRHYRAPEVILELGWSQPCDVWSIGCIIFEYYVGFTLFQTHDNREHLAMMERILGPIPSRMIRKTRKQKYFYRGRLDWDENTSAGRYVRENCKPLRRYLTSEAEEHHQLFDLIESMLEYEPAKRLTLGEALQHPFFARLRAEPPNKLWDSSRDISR
In short: as §1

EPHB1 = target: T4, EPHB1 (Homo sapiens, UniProt P54762); conditions: 10 μM ATP
T4 construct: purchased Reaction Biology Corp
T4 sequence (P54762 18-984): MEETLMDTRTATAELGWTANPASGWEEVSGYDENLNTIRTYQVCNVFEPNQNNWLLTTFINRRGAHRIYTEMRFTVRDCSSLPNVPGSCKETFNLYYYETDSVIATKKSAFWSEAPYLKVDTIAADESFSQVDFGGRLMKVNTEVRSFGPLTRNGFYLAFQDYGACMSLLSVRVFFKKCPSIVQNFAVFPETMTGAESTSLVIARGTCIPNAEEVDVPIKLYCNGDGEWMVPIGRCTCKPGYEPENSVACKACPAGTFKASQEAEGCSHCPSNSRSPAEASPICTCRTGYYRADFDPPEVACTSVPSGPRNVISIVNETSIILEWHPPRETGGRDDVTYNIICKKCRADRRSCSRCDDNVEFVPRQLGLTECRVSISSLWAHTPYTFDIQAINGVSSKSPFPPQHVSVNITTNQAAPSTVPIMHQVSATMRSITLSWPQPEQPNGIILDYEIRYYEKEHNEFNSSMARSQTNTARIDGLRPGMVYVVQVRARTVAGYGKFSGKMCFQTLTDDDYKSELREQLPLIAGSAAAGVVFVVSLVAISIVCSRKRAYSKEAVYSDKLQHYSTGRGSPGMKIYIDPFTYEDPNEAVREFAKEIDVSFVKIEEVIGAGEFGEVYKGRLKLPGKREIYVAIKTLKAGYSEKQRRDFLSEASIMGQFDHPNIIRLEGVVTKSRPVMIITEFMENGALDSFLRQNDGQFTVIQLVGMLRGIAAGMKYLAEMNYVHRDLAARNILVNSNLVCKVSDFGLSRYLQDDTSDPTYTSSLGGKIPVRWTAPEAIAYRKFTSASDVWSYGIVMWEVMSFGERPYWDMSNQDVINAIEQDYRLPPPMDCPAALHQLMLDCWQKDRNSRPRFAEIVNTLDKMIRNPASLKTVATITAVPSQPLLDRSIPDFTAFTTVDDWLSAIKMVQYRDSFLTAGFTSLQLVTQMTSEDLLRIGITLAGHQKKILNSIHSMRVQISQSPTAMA
In short: as §1

PKCmu/PRKD1 = target: T5, PKCmu/PRKD1 (Homo sapiens, UniProt Q15139)
T5 construct: purchased Reaction Biology Corp
T5 sequence (Q15139 1-912): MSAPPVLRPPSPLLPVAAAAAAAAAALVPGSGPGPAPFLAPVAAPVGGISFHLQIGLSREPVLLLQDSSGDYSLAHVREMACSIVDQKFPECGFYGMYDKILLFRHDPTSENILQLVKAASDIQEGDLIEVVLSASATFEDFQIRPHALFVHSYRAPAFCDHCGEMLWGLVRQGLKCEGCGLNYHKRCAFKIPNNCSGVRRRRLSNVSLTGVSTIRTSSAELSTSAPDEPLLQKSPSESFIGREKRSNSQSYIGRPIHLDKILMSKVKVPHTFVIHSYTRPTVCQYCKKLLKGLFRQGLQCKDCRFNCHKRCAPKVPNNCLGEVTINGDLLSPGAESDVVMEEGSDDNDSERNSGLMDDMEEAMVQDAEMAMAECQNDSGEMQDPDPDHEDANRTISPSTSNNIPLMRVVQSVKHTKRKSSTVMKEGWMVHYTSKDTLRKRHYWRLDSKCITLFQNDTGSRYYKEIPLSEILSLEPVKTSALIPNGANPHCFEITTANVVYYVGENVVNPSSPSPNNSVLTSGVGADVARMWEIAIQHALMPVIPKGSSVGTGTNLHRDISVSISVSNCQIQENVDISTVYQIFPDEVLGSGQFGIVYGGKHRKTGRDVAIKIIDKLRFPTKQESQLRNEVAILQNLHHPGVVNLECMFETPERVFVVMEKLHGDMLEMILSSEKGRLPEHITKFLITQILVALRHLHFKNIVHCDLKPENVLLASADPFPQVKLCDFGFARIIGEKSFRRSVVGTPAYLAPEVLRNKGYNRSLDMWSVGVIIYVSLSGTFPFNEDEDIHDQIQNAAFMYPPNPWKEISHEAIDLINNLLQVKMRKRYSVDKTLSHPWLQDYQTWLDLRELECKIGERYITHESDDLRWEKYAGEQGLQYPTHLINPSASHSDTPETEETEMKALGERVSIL
In short: as §1

[1] = read-out: % Enzyme Activity (relative to DMSO controls) AVG
[2] = read-out: % Enzyme Activity (relative to DMSO controls) Data 1
[3] = read-out: % Enzyme Activity (relative to DMSO controls) Data 2

Work on `CC(C)(C)C(=O)N1N=CC[C@H]1c1ccccc1` [GSK′963] yielded a remaining activity at 10 µM (Aurora C; [1]) of 96.9%, a remaining activity at 10 µM (Aurora C; [2]) of 98.4% and a remaining activity at 10 µM (Aurora C; [3]) of 95.5%. For the same compound, the remaining activity at 10 µM (CDK1/cyclin A; [1]) was 105%, the remaining activity at 10 µM (CDK1/cyclin A; [2]) was 107% and the remaining activity at 10 µM (CDK1/cyclin A; [3]) was 102%. For the same compound, the remaining activity at 10 µM (CLK2; [1]) was 101%, the remaining activity at 10 µM (CLK2; [2]) was 102% and the remaining activity at 10 µM (CLK2; [3]) was 99.7%. It also gave a remaining activity at 10 µM (EPHB1; [1]) of 99.4%, a remaining activity at 10 µM (EPHB1; [2]) of 98.8% and a remaining activity at 10 µM (EPHB1; [3]) of 100%. The remaining activity at 10 µM (PKCmu/PRKD1; 10 uM, 10 μM ATP, read-out: % Enzyme Activity (relative to DMSO controls) Data 1) was 99.9%, the remaining activity at 10 µM (PKCmu/PRKD1; 10 uM, 10 μM ATP, read-out: % Enzyme Activity (relative to DMSO controls) Data 2) was 103% and the remaining activity at 10 µM (PKCmu/PRKD1; [1]) was 101%.
